# Test results as given in ChEMBL document CHEMBL1201861, “Genomics of Drug Sensitity in Cancer screening data, Wellcome Trust Sanger Institute”.
# Experiments:
# Assay in all cases: cells
# KM12 = type: functional, cell-based, Homo sapiens;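 note: KM12 cell growth inhibition, read out with a cell viability assay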
# Description: SANGER: Inhibition of human KM12 cell growth in a cell viability assay.
# MFM-223 = type: functional, cell-based, Homo sapiens
# Description: SANGER: Inhibition of human MFM-223 cell growth in a cell viability assay.
# REH = type: functional, cell-based, Homo sapiens; conditions: Homo sapiens, REH;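 note: growth inhibition of REH cells determined with a cell viability read-out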
# Description: SANGER: Inhibition of human REH cell growth in a cell viability assay.
# MFH-ino = type: functional, cell-based, Homo sapiens;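 note: growth inhibition of human MFH-ino cells, read out by a cell viability assay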
# Description: SANGER: Inhibition of human MFH-ino cell growth in a cell viability assay.
# MHH-NB-11 = type: functional, cell-based, Homo sapiens;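 note: growth inhibition of human MHH-NB-11 cells, read out by a cell viability assay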
# Description: SANGER: Inhibition of human MHH-NB-11 cell growth in a cell viability assay.
# MHH-PREB-1 = type: functional, cell-based, Homo sapiens;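 note: cell viability assay measuring inhibition of proliferation of human MHH-PREB-1 cells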
# Description: SANGER: Inhibition of human MHH-PREB-1 cell growth in a cell viability assay.
# SIMA = type: functional, cell-based, Homo sapiens; conditions: Homo sapiens, SIMA;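 note: growth inhibition of SIMA cells, measured with a cell viability readout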
# Description: SANGER: Inhibition of human SIMA cell growth in a cell viability assay.
# PF-382 = type: functional, cell-based, Homo sapiens; conditions: Homo sapiens, PF-382
# Description: SANGER: Inhibition of human PF-382 cell growth in a cell viability assay.
# DMS-153 = type: functional, cell-based, Homo sapiens; conditions: Homo sapiens, DMS-153
# Description: SANGER: Inhibition of human DMS-153 cell growth in a cell viability assay.
# CTB-1 = type: functional, cell-based, Homo sapiens
# Description: SANGER: Inhibition of human CTB-1 cell growth in a cell viability assay.
# DJM-1 = type: functional, cell-based, Homo sapiens;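 note: growth inhibition of human DJM-1 cells, read out by a cell viability assay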
# Description: SANGER: Inhibition of human DJM-1 cell growth in a cell viability assay.
# MDA-MB-134-VI = type: functional, cell-based, Homo sapiens; conditions: Homo sapiens, MDA-MB-134-VI
# Description: SANGER: Inhibition of human MDA-MB-134-VI cell growth in a cell viability assay.
# MPP-89 = type: functional, cell-based, Homo sapiens;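 note: growth inhibition of human MPP-89 cells, read out with a cell viability assay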
# Description: SANGER: Inhibition of human MPP-89 cell growth in a cell viability assay.
# NCI-H1522 = type: functional, cell-based, Homo sapiens; conditions: Homo sapiens, NCI-H1522;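 note: growth inhibition of NCI-H1522 cells, read out with a cell viability assay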
# Description: SANGER: Inhibition of human NCI-H1522 cell growth in a cell viability assay.
# EVSA-T = type: functional, cell-based, Homo sapiens; conditions: Homo sapiens, EVSA-T;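 note: growth inhibition of EVSA-T cells, read out with a cell viability assay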
# Description: SANGER: Inhibition of human EVSA-T cell growth in a cell viability assay.
# SK-MEL-2 = type: functional, cell-based, Homo sapiens;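 note: growth inhibition of human SK-MEL-2 cells measured with a cell viability assay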
# Description: SANGER: Inhibition of human SK-MEL-2 cell growth in a cell viability assay.
# IMR-5 = type: functional, cell-based, Homo sapiens; conditions: Homo sapiens, IMR-5;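 note: growth inhibition of human IMR-5 cells, read out with a cell viability assay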
# Description: SANGER: Inhibition of human IMR-5 cell growth in a cell viability assay.
# D-263MG = type: functional, cell-based, Homo sapiens
# Description: SANGER: Inhibition of human D-263MG cell growth in a cell viability assay.
# U-87 MG = type: functional, cell-based, Homo sapiens, U-87MG ATCC;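 note: growth inhibition of the cells measured with a viability assay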
# Description: SANGER: Inhibition of human U-87-MG cell growth in a cell viability assay.
# SJSA-1 = type: functional, cell-based, Homo sapiens;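 note: growth inhibition of human SJSA-1 cells, read out through a cell viability measurement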
# Description: SANGER: Inhibition of human SJSA-1 cell growth in a cell viability assay.
# U-698-M = type: functional, cell-based, Homo sapiens; conditions: Homo sapiens, U-698-M
# Description: SANGER: Inhibition of human U-698-M cell growth in a cell viability assay.
# EW-18 = type: functional, cell-based, Homo sapiens;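 note: growth inhibition of EW-18 cells, read out by a cell viability assay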
# Description: SANGER: Inhibition of human EW-18 cell growth in a cell viability assay.
# KMS-12-PE = type: functional, cell-based, Homo sapiens; conditions: Homo sapiens, KMS-12-PE;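 note: growth inhibition of human KMS-12-PE cells, measured with a cell viability assay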
# Description: SANGER: Inhibition of human KMS-12-PE cell growth in a cell viability assay.
# SF-126 = type: functional, cell-based, Homo sapiens;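 note: growth inhibition of human SF126 cells, read out with a cell viability assay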
# Description: SANGER: Inhibition of human SF126 cell growth in a cell viability assay.
# ETK-1 = type: functional, cell-based, Homo sapiens;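 note: growth inhibition of human ETK-1 cells, read out with a cell viability assay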
# Description: SANGER: Inhibition of human ETK-1 cell growth in a cell viability assay.
# MC-CAR = type: functional, cell-based, Homo sapiens; conditions: Homo sapiens, MC-CAR;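 note: growth inhibition of the human MC-CAR cell line, read out by a cell viability assay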
# Description: SANGER: Inhibition of human MC-CAR cell growth in a cell viability assay.
# SJRH30 = type: functional, cell-based, Homo sapiens;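 note: growth inhibition of human SJRH30 cells, read out with a cell viability assay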
# Description: SANGER: Inhibition of human SJRH30 cell growth in a cell viability assay.
# SW1783 = type: functional, cell-based, Homo sapiens;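 note: cell growth inhibition measured with a viability assay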
# Description: SANGER: Inhibition of human SW1783 cell growth in a cell viability assay.
# CAL-85-1 = type: functional, cell-based, Homo sapiens;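 note: growth inhibition of human CAL-85-1 cells, read out with a cell viability assay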
# Description: SANGER: Inhibition of human CAL-85-1 cell growth in a cell viability assay.
# U-251 = type: functional, cell-based, Homo sapiens;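 note: growth inhibition of human U-251 cells, read out through a cell viability assay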
# Description: SANGER: Inhibition of human U251 cell growth in a cell viability assay.
# RCM-1 = type: functional, cell-based, Homo sapiens;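 note: growth inhibition of the RCM-1 line, determined with a cell viability readout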
# Description: SANGER: Inhibition of human RCM-1 cell growth in a cell viability assay.
# CAL-12T = type: functional, cell-based, Homo sapiens;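 note: growth inhibition of human CAL-12T cells, read out with a cell viability assay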
# Description: SANGER: Inhibition of human CAL-12T cell growth in a cell viability assay.
# Ca-Ski = type: functional, cell-based, Homo sapiens;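 note: cell viability assay measuring inhibition of Ca-Ski cell growth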
# Description: SANGER: Inhibition of human Ca-Ski cell growth in a cell viability assay.
# Panc1005 = type: functional, cell-based, Homo sapiens;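 note: growth inhibition of human PANC-10-05 cells, measured by a cell viability assay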
# Description: SANGER: Inhibition of human PANC-10-05 cell growth in a cell viability assay.
# NCI-H2087 = type: functional, cell-based, Homo sapiens;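 note: growth inhibition determined with a cell viability readout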
# Description: SANGER: Inhibition of human NCI-H2087 cell growth in a cell viability assay.
# HCC1569 = type: functional, cell-based, Homo sapiens;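 note: growth inhibition of human HCC1569 cells, read out with a cell viability assay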
# Description: SANGER: Inhibition of human HCC1569 cell growth in a cell viability assay.
# SK-MEL3 = type: functional, cell-based, Homo sapiens, SK-MEL-3;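 note: growth inhibition of human SK-MEL-3 cells, read out with a cell viability assay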
# Description: SANGER: Inhibition of human SK-MEL-3 cell growth in a cell viability assay.
# A-431 = type: functional, cell-based, Homo sapiens;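 note: growth inhibition of A-431 cells, determined with a cell viability read-out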
# Description: SANGER: Inhibition of human A431 cell growth in a cell viability assay.
# PA-1 = type: functional, cell-based, Homo sapiens;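 note: IC50 for suppression of PA-1 cell proliferation, determined with a cell viability read-out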
# Description: SANGER: Inhibition of human PA-1 cell growth in a cell viability assay.
# RT-112 = type: functional, cell-based, Homo sapiens
# Description: SANGER: Inhibition of human RT-112 cell growth in a cell viability assay.
# NY = type: functional, cell-based, Homo sapiens
# Description: SANGER: Inhibition of human NY cell growth in a cell viability assay.
# A2058 = type: functional, cell-based, Homo sapiens;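 note: reduction of A2058 cell growth, read out with a viability assay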
# Description: SANGER: Inhibition of human A2058 cell growth in a cell viability assay.
# BCPAP = type: functional, cell-based, Homo sapiens;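 note: growth inhibition of BCPAP cells, read out in a cell viability assay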
# Description: SANGER: Inhibition of human BCPAP cell growth in a cell viability assay.
# COR-L23 = type: functional, cell-based, Homo sapiens;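 note: cell viability assay measuring how strongly compounds suppress growth of COR-L23 cells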
# Description: SANGER: Inhibition of human COR-L23 cell growth in a cell viability assay.
# CAMA-1 = type: functional, cell-based, Homo sapiens;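 note: growth inhibition of CAMA-1 cells, read out with a cell viability assay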
# Description: SANGER: Inhibition of human CAMA-1 cell growth in a cell viability assay.
# RS4-11 = type: functional, cell-based, Homo sapiens;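 note: growth inhibition of RS4-11 cells, read out by a cell viability assay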
# Description: SANGER: Inhibition of human RS4-11 cell growth in a cell viability assay.
# CHP-212 = type: functional, cell-based, Homo sapiens
# Description: SANGER: Inhibition of human CHP-212 cell growth in a cell viability assay.
compound,measurement,setting,value
CCN(CC)CCNC(=O)c1c(C)[nH]c(/C=C2\C(=O)Nc3ccc(F)cc32)c1C [SUNITINIB],IC50,"KM12; Homo sapiens, KM12",0.35 µM
same,IC50,"MFM-223; Homo sapiens, MFM-223",> 8 µM
same,IC50,REH,> 8 µM
same,IC50,"MFH-ino; Homo sapiens, MFH-ino",> 8 µM
same,IC50,"MHH-NB-11; Homo sapiens, MHH-NB-11",> 8 µM
same,IC50,"MHH-PREB-1; Homo sapiens, MHH-PREB-1",5.32 µM
same,IC50,SIMA,> 8 µM
same,IC50,PF-382,3.45 µM
same,IC50,DMS-153,> 8 µM
same,IC50,"CTB-1; Homo sapiens, CTB-1",> 8 µM
same,IC50,"DJM-1; Homo sapiens, DJM-1",> 8 µM
same,IC50,MDA-MB-134-VI,> 8 µM
same,IC50,"MPP-89; Homo sapiens, MPP-89",> 8 µM
same,IC50,NCI-H1522,> 8 µM
same,IC50,EVSA-T,> 8 µM
same,IC50,"SK-MEL-2; Homo sapiens, SK-MEL-2",> 8 µM
same,IC50,IMR-5,7.55 µM
same,IC50,"D-263MG; Homo sapiens, D-263MG",> 8 µM
same,IC50,"U-87 MG; Homo sapiens, U-87 MG",> 8 µM
same,IC50,"SJSA-1; Homo sapiens, SJSA-1",7.66 µM
same,IC50,U-698-M,> 8 µM
same,IC50,"EW-18; Homo sapiens, EW-18",> 8 µM
same,IC50,KMS-12-PE,> 8 µM
same,IC50,"SF-126; Homo sapiens, SF-126",3.06 µM
same,IC50,"ETK-1; Homo sapiens, ETK-1",1.29 µM
same,IC50,MC-CAR,> 8 µM
CO[C@H]1C[C@@H]2CC[C@@H](C)[C@@](O)(O2)C(=O)C(=O)N2CCCC[C@H]2C(=O)O[C@H]([C@H](C)C[C@@H]2CC[C@@H](OC(=O)C(C)(CO)CO)[C@H](OC)C2)CC(=O)[C@H](C)/C=C(\C)[C@@H](O)[C@@H](OC)C(=O)[C@H](C)C[C@H](C)/C=C/C=C/C=C/1C [TEMSIROLIMUS],IC50,"KM12; Homo sapiens, KM12",> 0.2 µM
same,IC50,"SJRH30; Homo sapiens, SJRH30",> 0.2 µM
same,IC50,"SW1783; Homo sapiens, SW1783",> 0.2 µM
same,IC50,"CAL-85-1; Homo sapiens, CAL-85-1",> 0.2 µM
same,IC50,"MFM-223; Homo sapiens, MFM-223",> 0.2 µM
same,IC50,"MFH-ino; Homo sapiens, MFH-ino",> 0.2 µM
same,IC50,"U-251; Homo sapiens, U-251",> 0.2 µM
same,IC50,"RCM-1; Homo sapiens, RCM-1",> 0.2 µM
same,IC50,"MHH-NB-11; Homo sapiens, MHH-NB-11",> 0.2 µM
same,IC50,"CAL-12T; Homo sapiens, CAL-12T",> 0.2 µM
same,IC50,"MHH-PREB-1; Homo sapiens, MHH-PREB-1",0.000495 µM
same,IC50,"Ca-Ski; Homo sapiens, Ca-Ski",> 0.2 µM
same,IC50,"Panc1005; Homo sapiens, Panc1005",0.155 µM
same,IC50,"NCI-H2087; Homo sapiens, NCI-H2087",> 0.2 µM
same,IC50,"HCC1569; Homo sapiens, HCC1569",> 0.2 µM
same,IC50,"SK-MEL3; Homo sapiens, SK-MEL3",> 0.2 µM
same,IC50,"A-431; Homo sapiens, A-431",> 0.2 µM
same,IC50,"CTB-1; Homo sapiens, CTB-1",0.00293 µM
same,IC50,"DJM-1; Homo sapiens, DJM-1",> 0.2 µM
same,IC50,"PA-1; Homo sapiens, PA-1",0.00147 µM
same,IC50,"MPP-89; Homo sapiens, MPP-89",> 0.2 µM
same,IC50,"SK-MEL-2; Homo sapiens, SK-MEL-2",> 0.2 µM
same,IC50,"RT-112; Homo sapiens, RT-112",0.0471 µM
same,IC50,"NY; Homo sapiens, NY",> 0.2 µM
same,IC50,"A2058; Homo sapiens, A2058",0.0266 µM
same,IC50,"BCPAP; Homo sapiens, BCPAP",0.0585 µM
same,IC50,"D-263MG; Homo sapiens, D-263MG",0.159 µM
same,IC50,"U-87 MG; Homo sapiens, U-87 MG",> 0.2 µM
same,IC50,"SJSA-1; Homo sapiens, SJSA-1",0.143 µM
same,IC50,"EW-18; Homo sapiens, EW-18",> 0.2 µM
same,IC50,"COR-L23; Homo sapiens, COR-L23",> 0.2 µM
same,IC50,"SF-126; Homo sapiens, SF-126",0.0229 µM
same,IC50,"ETK-1; Homo sapiens, ETK-1",0.0318 µM
same,IC50,"CAMA-1; Homo sapiens, CAMA-1",0.00477 µM
same,IC50,"RS4-11; Homo sapiens, RS4-11",0.00845 µM
same,IC50,"CHP-212; Homo sapiens, CHP-212",0.0524 µM
CS(=O)(=O)c1ccc(C(=O)Nc2ccc(Cl)c(-c3ccccn3)c2)c(Cl)c1 [VISMODEGIB],IC50,"KM12; Homo sapiens, KM12",> 10 µM
same,IC50,"SJRH30; Homo sapiens, SJRH30",> 10 µM
same,IC50,"SW1783; Homo sapiens, SW1783",> 10 µM
same,IC50,"CAL-85-1; Homo sapiens, CAL-85-1",> 10 µM
same,IC50,"MFM-223; Homo sapiens, MFM-223",> 10 µM
same,IC50,"MFH-ino; Homo sapiens, MFH-ino",> 10 µM
same,IC50,"U-251; Homo sapiens, U-251",> 10 µM
same,IC50,"RCM-1; Homo sapiens, RCM-1",> 10 µM
same,IC50,"MHH-NB-11; Homo sapiens, MHH-NB-11",> 10 µM
same,IC50,"CAL-12T; Homo sapiens, CAL-12T",> 10 µM
same,IC50,"MHH-PREB-1; Homo sapiens, MHH-PREB-1",> 10 µM
same,IC50,"Ca-Ski; Homo sapiens, Ca-Ski",> 10 µM
same,IC50,"Panc1005; Homo sapiens, Panc1005",> 10 µM
same,IC50,"NCI-H2087; Homo sapiens, NCI-H2087",> 10 µM
same,IC50,"HCC1569; Homo sapiens, HCC1569",> 10 µM
same,IC50,"SK-MEL3; Homo sapiens, SK-MEL3",> 10 µM
same,IC50,"A-431; Homo sapiens, A-431",> 10 µM
same,IC50,"CTB-1; Homo sapiens, CTB-1",> 10 µM
same,IC50,"DJM-1; Homo sapiens, DJM-1",> 10 µM
same,IC50,"PA-1; Homo sapiens, PA-1",> 10 µM
same,IC50,"MPP-89; Homo sapiens, MPP-89",> 10 µM
same,IC50,"SK-MEL-2; Homo sapiens, SK-MEL-2",> 10 µM
same,IC50,"RT-112; Homo sapiens, RT-112",> 10 µM
same,IC50,"NY; Homo sapiens, NY",> 10 µM
same,IC50,"A2058; Homo sapiens, A2058",> 10 µM
same,IC50,"BCPAP; Homo sapiens, BCPAP",> 10 µM
same,IC50,"D-263MG; Homo sapiens, D-263MG",> 10 µM
same,IC50,"U-87 MG; Homo sapiens, U-87 MG",> 10 µM
same,IC50,"SJSA-1; Homo sapiens, SJSA-1",> 10 µM
same,IC50,"EW-18; Homo sapiens, EW-18",> 10 µM
same,IC50,"COR-L23; Homo sapiens, COR-L23",> 10 µM
same,IC50,"SF-126; Homo sapiens, SF-126",> 10 µM
same,IC50,"ETK-1; Homo sapiens, ETK-1",> 10 µM
same,IC50,"CAMA-1; Homo sapiens, CAMA-1",> 10 µM
same,IC50,"RS4-11; Homo sapiens, RS4-11",> 10 µM
same,IC50,"CHP-212; Homo sapiens, CHP-212",> 10 µM
CISPLATIN,IC50,KM12; km12,114 µM
same,IC50,SJRH30; sjrh30,98.3 µM
same,IC50,SW1783; sw1783,23.3 µM
same,IC50,CAL-85-1; cal-85-1,732 µM
same,IC50,MFM-223; mfm-223,615 µM
same,IC50,MFH-ino; mfh-ino,1340 µM
same,IC50,U-251; u-251,11.6 µM
same,IC50,RCM-1; rcm-1,123 µM
same,IC50,MHH-NB-11; mhh-nb-11,4.83 µM
same,IC50,CAL-12T; cal-12t,625 µM
same,IC50,MHH-PREB-1; mhh-preb-1,23.8 µM
same,IC50,Ca-Ski; ca-ski,10.3 µM
same,IC50,Panc1005; panc1005,8.61 µM
same,IC50,NCI-H2087; nci-h2087,14.5 µM
same,IC50,HCC1569; hcc1569,455 µM
same,IC50,SK-MEL3; sk-mel-3,684 µM
same,IC50,A-431; a-431,572 µM
same,IC50,CTB-1; ctb-1,2.3 µM
same,IC50,DJM-1; djm-1,6.36 µM
same,IC50,PA-1; pa-1,0.79 µM
same,IC50,MPP-89; mpp-89,16.2 µM
same,IC50,SK-MEL-2; sk-mel-2,226 µM
same,IC50,RT-112; rt-112,14.3 µM
same,IC50,NY; ny,28.2 µM
same,IC50,A2058; a2058,17.5 µM
same,IC50,BCPAP; bcpap,228 µM
same,IC50,D-263MG; d-263mg,6.66 µM
same,IC50,U-87 MG; u-87mg atcc,16.2 µM
same,IC50,SJSA-1; sjsa-1,23 µM
same,IC50,EW-18; ew-18,35.2 µM
same,IC50,COR-L23; cor-l23,5.63 µM
same,IC50,SF-126; sf-126,12.1 µM
same,IC50,ETK-1; etk-1,49.8 µM
same,IC50,CAMA-1; cama-1,117 µM
same,IC50,RS4-11; rs4-11,5.57 µM
same,IC50,CHP-212; chp-212,25.5 µM
